Measured values reported in US11485733B2, “Azaquinoline derivatives” (BAYER ANIMAL HEALTH GMBH, priority 2017, dated 2022).

Key:
Haemonchus contortus = Haemonchus contortus larval mortality; details: 120 h, read-out: activity (percentage of larval mortality)
Description: In Vitro Assay 7: Haemonchus contortus
Solvent: Dimethyl Sulfoxide
Approximately 40 larvae of the red stomach worm (Haemonchus contortus) are transferred into a test tube containing compound solution.
After 5 days the percentage of larval mortality is recorded. 100% efficacy means all larvae are killed, 0% efficacy means no larvae are killed.

[1] = system: Nippostrongylus brasiliensis; assay: Nippostrongylus brasiliensis (NIPOBR) adult worms, acetylcholine esterase readout; details: read-out: activity (reduction of AChE compared to negative control); for inhibition at 1 µg/mL: at 1 μg/ml (1 ppm); for inhibition at 10 µg/mL: at 10 μg/ml (10 ppm)
Description: In Vitro Assay 3: Nippostrongylus brasiliensis (NIPOBR)
Adult Nippostrongylus brasiliensis were washed with saline buffer containing 100 U/ml penicillin, 0.1 mg/ml streptomycin and 2.5 μg/ml amphotericin B. Test compounds were dissolved in DMSO and worms were incubated in medium in a final concentration of 10 μg/ml (10 ppm) respectively 1 μg/ml (1 ppm). An aliquot of the medium was used to determine the acetylcholine esterase activity in comparison to a negative control. The principle of measuring acetylcholine esterase as readout for anthelmintic activity was described in Rapson et al (1986) and Rapson et al (1987).

Cooperia curticei = Cooperia curticei larval mortality; details: 120 h, read-out: activity (percentage of larval mortality)
Description: In Vitro Assay 6: Cooperia curticei
Solvent: Dimethyl Sulfoxide
Approximately 40 nematode larvae (Cooperia curticei) are transferred into a test tube containing the compound solution.
After 5 days percentage of larval mortality is recorded. 100% efficacy means all larvae are killed; 0% efficacy means no larvae are killed.

D. immitis Slo-1 = D. immitis Slo-1 (Dirofilaria immitis, UniProt I0DFK5); assay: D. immitis Slo-1, action at a recombinant CHO cell line (membrane potential, FLIPR); type: cell-based
C. elegans Slo-1a = C. elegans Slo-1a (Caenorhabditis elegans, UniProt Q95V25); details: pE50 (negative decadic logarithm of EC50), CHO cells expressing C. elegans Slo-1a; voltage sensitive dye, 70 mM KCl
Dirofilaria immitis = Dirofilaria immitis (DIROIM L4) larval motility; details: 72 h, read-out: EC50 (reduction of motility)
[2] = system: Dirofilaria immitis microfilariae; assay: Dirofilaria immitis microfilariae (DIROIM L1) motility; details: 72 h, read-out: EC50 (reduction of motility)

Sequence of D. immitis Slo-1 (I0DFK5 1-1119): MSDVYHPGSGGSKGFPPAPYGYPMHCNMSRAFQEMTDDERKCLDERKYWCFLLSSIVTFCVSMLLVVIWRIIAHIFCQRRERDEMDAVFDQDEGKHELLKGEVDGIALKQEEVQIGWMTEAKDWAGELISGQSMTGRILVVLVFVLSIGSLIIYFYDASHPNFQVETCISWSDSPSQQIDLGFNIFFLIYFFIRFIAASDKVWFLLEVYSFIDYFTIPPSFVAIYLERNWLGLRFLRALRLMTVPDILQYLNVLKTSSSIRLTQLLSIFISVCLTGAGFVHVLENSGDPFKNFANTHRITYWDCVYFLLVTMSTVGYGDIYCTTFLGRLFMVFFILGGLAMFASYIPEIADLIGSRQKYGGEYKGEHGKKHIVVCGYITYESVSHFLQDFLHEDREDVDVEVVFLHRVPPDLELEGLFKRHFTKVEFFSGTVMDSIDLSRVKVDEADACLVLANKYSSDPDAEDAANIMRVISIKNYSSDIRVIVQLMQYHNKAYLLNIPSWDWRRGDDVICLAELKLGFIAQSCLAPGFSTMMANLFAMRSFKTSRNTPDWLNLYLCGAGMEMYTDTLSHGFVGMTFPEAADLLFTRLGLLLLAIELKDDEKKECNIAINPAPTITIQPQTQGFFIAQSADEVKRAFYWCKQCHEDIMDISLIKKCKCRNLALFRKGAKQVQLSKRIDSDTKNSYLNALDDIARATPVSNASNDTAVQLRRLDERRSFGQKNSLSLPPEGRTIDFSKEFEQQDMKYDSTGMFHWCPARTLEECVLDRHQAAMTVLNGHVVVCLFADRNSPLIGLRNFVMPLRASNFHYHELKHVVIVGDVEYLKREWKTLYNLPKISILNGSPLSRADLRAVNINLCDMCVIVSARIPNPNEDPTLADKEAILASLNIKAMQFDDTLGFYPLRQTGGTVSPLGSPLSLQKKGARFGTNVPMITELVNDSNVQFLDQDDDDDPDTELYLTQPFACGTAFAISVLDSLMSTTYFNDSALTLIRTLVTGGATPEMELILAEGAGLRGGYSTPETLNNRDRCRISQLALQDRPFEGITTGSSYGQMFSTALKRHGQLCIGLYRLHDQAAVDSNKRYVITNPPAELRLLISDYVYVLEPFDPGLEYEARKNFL
Sequence of C. elegans Slo-1a (Q95V25 whole entry): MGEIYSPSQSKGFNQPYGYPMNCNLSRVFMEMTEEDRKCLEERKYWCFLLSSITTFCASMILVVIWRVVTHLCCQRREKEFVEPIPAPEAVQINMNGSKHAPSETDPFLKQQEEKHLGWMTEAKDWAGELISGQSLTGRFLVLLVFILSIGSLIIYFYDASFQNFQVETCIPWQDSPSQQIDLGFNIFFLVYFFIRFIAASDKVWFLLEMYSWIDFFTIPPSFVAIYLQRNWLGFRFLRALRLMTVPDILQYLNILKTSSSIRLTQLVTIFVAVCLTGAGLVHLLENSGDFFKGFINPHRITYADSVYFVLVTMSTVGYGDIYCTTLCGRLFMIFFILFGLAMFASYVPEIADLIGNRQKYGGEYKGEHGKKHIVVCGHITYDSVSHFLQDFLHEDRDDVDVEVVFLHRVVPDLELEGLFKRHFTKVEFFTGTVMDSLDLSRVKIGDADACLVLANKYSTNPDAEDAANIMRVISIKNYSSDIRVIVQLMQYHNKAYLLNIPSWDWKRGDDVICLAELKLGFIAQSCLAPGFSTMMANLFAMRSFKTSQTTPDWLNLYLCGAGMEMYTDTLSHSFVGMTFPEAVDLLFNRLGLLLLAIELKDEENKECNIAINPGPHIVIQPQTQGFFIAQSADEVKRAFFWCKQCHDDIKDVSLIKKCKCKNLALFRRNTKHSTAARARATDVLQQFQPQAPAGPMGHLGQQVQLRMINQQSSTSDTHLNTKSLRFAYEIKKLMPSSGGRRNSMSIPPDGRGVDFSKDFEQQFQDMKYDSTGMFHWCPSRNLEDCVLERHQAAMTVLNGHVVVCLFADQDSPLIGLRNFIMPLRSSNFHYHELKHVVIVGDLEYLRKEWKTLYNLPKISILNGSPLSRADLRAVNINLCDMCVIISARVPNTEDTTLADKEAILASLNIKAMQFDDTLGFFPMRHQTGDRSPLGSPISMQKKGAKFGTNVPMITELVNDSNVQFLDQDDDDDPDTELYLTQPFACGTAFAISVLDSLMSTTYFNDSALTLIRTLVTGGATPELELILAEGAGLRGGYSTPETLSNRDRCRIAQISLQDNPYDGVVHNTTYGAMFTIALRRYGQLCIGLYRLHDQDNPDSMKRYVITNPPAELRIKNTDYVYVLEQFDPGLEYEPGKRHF

Compound	mortality at 20 ppm (Haemonchus contortus) [%]	inhibition at 1 µg/mL [1] [%]	inhibition at 10 µg/mL [1] [%]	mortality at 4 ppm (Cooperia curticei) [%]	mortality at 20 ppm (Cooperia curticei) [%]	EC50 (D. immitis Slo-1) [nM]	EC50 (C. elegans Slo-1a) [nM]	EC50 (Dirofilaria immitis) [µg/mL]	EC50 [2] [µg/mL]
CN(C)c1c(C(=O)N[C@H]2CCOc3ccccc32)cnc2c(-c3cccc(Cl)c3Cl)nccc12 [Example T1-2, 8-(2,3-Dichlorophenyl)-N-[(4S)-3,4-dihydro-2H-chromen-4-yl]-4-(dimethylamino)-1,7-naphthyridine-3-carboxamide]	90	> 80	> 80	100	100	31.6 to 316	3.16 to 31.6	< 0.1	< 0.1
O=C(N[C@H]1CCOc2ccccc21)c1cnc2c(-c3cc(Cl)cc(Cl)c3)nccc2c1N1CCOCC1 [Example T1-3, 8-(3,5-Dichlorophenyl)-N-[(4S)-3,4-dihydro-2H-chromen-4-yl]-4-(morpholin-4-yl)-1,7-naphthyridine-3-carboxamide]	100	> 80	> 80	100	100	31.6 to 316	3.16 to 31.6	< 0.1	< 0.1
O=C(N[C@H]1CCOc2ccccc21)c1cnc2c(-c3cccc(Cl)c3Cl)ncc(F)c2c1N1CCOCC1 [Example T1-7, 8-(2,3-dichlorophenyl)-N-[(4S)-3,4-dihydro-2H-1-benzopyran-4-yl]-5-fluoro-4-(morpholin-4-yl)-1,7-naphthyridine-3-carboxamide]	–	> 80	> 80	–	–	3.16 to 31.6	< 3.16	< 0.1	< 0.1
COc1cnc(-c2cc(F)cc(F)c2F)c2ncc(C(=O)N[C@H]3CCOc4ccccc43)c(N3CCOCC3)c12 [Example T1-9, N-[(4S)-3,4-dihydro-2H-1-benzopyran-4-yl]-5-methoxy-4-(morpholin-4-yl)-8-(2,3,5-trifluorophenyl)-1,7-naphthyridine-3-carboxamide]	–	> 80	> 80	–	–	31.6 to 316	3.16 to 31.6	< 0.1	–
COc1cnc(-c2cccc(Cl)c2Cl)c2ncc(C(=O)N[C@H]3CCOc4ccccc43)c(N(C)C)c12 [Example T1-11, 8-(2,3-dichlorophenyl)-N-[(4S)-3,4-dihydro-2H-1-benzopyran-4-yl]-4-(dimethylamino)-5-methoxy-1,7-naphthyridine-3-carboxamide]	–	> 80	> 80	–	–	31.6 to 316	3.16 to 31.6	< 0.1	< 0.1
COc1cnc(-c2cccc(Cl)c2Cl)c2ncc(C(=O)N[C@H]3CCOc4ccccc43)c(N3CCOCC3)c12 [Example T1-14, 8-(2,3-dichlorophenyl)-N-[(4S)-3,4-dihydro-2H-1-benzopyran-4-yl]-5-methoxy-4-(morpholin-4-yl)-1,7-naphthyridine-3-carboxamide]	–	> 80	> 80	–	–	31.6 to 316	3.16 to 31.6	< 0.1	< 0.1
O=C(N[C@H]1CCOc2ccccc21)c1cnc2c(-c3cc(Cl)cc(Cl)c3)cncc2c1N1CCOCC1 [Example T2-4, 8-(3,5-Dichlorophenyl)-N-[(4S)-3,4-dihydro-2H-chromen-4-yl]-4-(morpholin-4-yl)-1,6-naphthyridine-3-carboxamide]	–	> 80	–	–	–	31.6 to 316	3.16 to 31.6	< 0.1	< 0.1
COc1ncc(-c2cccc(Cl)c2Cl)c2ncc(C(=O)N[C@H]3CCOc4ccccc43)c(N3CCOCC3)c12 [Example T2-11, 8-(2,3-dichlorophenyl)-N-[(4S)-3,4-dihydro-2H-1-benzopyran-4-yl]-5-methoxy-4-(morpholin-4-yl)-1,6-naphthyridine-3-carboxamide]	–	> 80	> 80	–	–	31.6 to 316	< 3.16	< 0.1	< 0.1
O=C(N[C@H]1CCOc2ccccc21)c1cnc2c(-c3cc(Cl)cc(Cl)c3)ccnc2c1N1CCOCC1 [Example T3-2, 8-(3,5-Dichlorophenyl)-N-[(4S)-3,4-dihydro-2H-chromen-4-yl]-4-(morpholin-4-yl)-1,5-naphthyridine-3-carboxamide]	90	–	–	90	90	–	3.16 to 31.6	< 0.1	< 0.1
CN(C)c1c(C(=O)N[C@H]2CCOc3ccccc32)cnc2c(-c3cc(Cl)cc(Cl)c3)ncnc12 [Example T4-1, 4-(3,5-Dichlorophenyl)-N-[(4S)-3,4-dihydro-2H-chromen-4-yl]-8-(dimethylamino)-pyrido[3,2-d]pyrimidine-7-carboxamide]	–	> 80	> 80	–	80	31.6 to 316	3.16 to 31.6	< 0.1	< 0.1
O=C(N[C@H]1CCOc2ccccc21)c1cnc2c(-c3cc(Cl)cc(Cl)c3)ncnc2c1N1CCOCC1 [Example T4-2, 4-(3,5-Dichlorophenyl)-N-[(4S)-3,4-dihydro-2H-chromen-4-yl]-8-(morpholin-4-yl)pyrido[3,2-d]pyrimidine-7-carboxamide]	–	> 80	> 80	–	–	31.6 to 316	3.16 to 31.6	< 0.1	< 0.1
CN(C)c1c(C(=O)N[C@H]2CCOc3ccccc32)nnc2c(-c3cc(Cl)cc(Cl)c3)cccc12 [Example T5-1, 8-(3,5-Dichlorophenyl)-N-[(4S)-3,4-dihydro-2H-chromen-4-yl]-4-(dimethylamino)cinnoline-3-carboxamide]	–	> 80	–	–	–	31.6 to 316	< 3.16	< 0.1	< 0.1
CN(C)c1c(C(=O)N[C@H]2CCOc3ccccc32)nnc2c(-c3cccc(Cl)c3)cccc12 [Example T5-2, 8-(3-Chlorophenyl)-N-[(4S)-3,4-dihydro-2H-chromen-4-yl]-4-(dimethylamino)cinnoline-3-carboxamide]	80	–	–	–	80	31.6 to 316	3.16 to 31.6	–	< 0.1
CN(C)c1c(C(=O)N[C@H]2CCOc3ccccc32)nnc2c(-c3cccc(Cl)c3Cl)cccc12 [Example T5-3, 8-(2,3-Dichlorophenyl)-N-[(4S)-3,4-dihydro-2H-chromen-4-yl]-4-(dimethylamino)cinnoline-3-carboxamide]	–	> 80	–	–	80	3.16 to 31.6	< 3.16	< 0.1	< 0.1
COc1c(C(=O)N[C@H]2CCOc3ccccc32)nnc2c(-c3cccc(Cl)c3)cccc12 [Example T5-6, 8-(3-Chlorophenyl)-N-[(4S)-3,4-dihydro-2H-chromen-4-yl]-4-methoxycinnoline-3-carboxamide]	–	–	–	–	80	31.6 to 316	3.16 to 31.6	–	< 0.1
COc1c(C(=O)N[C@H]2CCOc3ccccc32)nnc2c(-c3ccc(F)c(F)c3)cccc12 [Example T5-8, 8-(3,4-Difluorophenyl)-N-[(4S)-3,4-dihydro-2H-chromen-4-yl]-4-methoxycinnoline-3-carboxamide]	–	–	–	–	–	31.6 to 316	3.16 to 31.6	–	< 0.1
CN(C)c1c(C(=O)N[C@H]2CCOc3ccccc32)cnc2c(-c3cccc(Cl)c3Cl)cnnc12 [Example T6-1, 4-(2,3-Dichlorophenyl)-N-[(4S)-3,4-dihydro-2H-chromen-4-yl]-8-(dimethylamino)pyrido[3,2-c]pyridazine-7-carboxamide]	100	> 80	–	–	90	–	3.16 to 31.6	< 0.1	< 0.1
O=C(N[C@H]1CCOc2ccccc21)c1cnc2c(-c3cccc(Cl)c3Cl)cnnc2c1N1CCOCC1 [Example T6-2, 4-(2,3-Dichlorophenyl)-N-[(4S)-3,4-dihydro-2H-chromen-4-yl]-8-(morpholin-4-yl)pyrido[3,2-c]pyridazine-7-carboxamide]	–	> 80	–	–	90	–	31.6 to 316	–	< 0.1
CN(C)c1c(C(=O)N[C@H]2CCOc3ccccc32)cnc2c(-c3cc(Cl)cc(Cl)c3)cnnc12 [Example T6-3, 4-(3,5-Dichlorophenyl)-N-[(4S)-3,4-dihydro-2H-chromen-4-yl]-8-(dimethylamino)pyrido[3,2-c]pyridazine-7-carboxamide]	90	> 80	–	–	–	31.6 to 316	3.16 to 31.6	< 0.1	< 0.1
O=C(N[C@H]1CCOc2ccccc21)c1cnc2c(-c3cc(Cl)cc(Cl)c3)cnnc2c1N1CCOCC1 [Example T6-4, 4-(3,5-Dichlorophenyl)-N-[(4S)-3,4-dihydro-2H-chromen-4-yl]-8-(morpholin-4-yl)pyrido[3,2-c]pyridazine-7-carboxamide]	80	–	–	–	90	31.6 to 316	31.6 to 316	–	–
